Key:
[1] = tested on: Plasmodium falciparum; test: Resistance index, ratio of IC50 for chloroquine-resistant Plasmodium falciparum Dd2 to IC50 for chloroquine-sensitive Plasmodium falciparum NF54; assay type: functional
[2] = Inhibition of beta-hematin formation after overnight incubation by NP-40 detergent-mediated spectroscopic analysis; assay type: functional
[3] = Cytotoxicity against human WHCO1 cells after 48 hrs by MTT assay; assay type: functional, cell-based; details: WHCO1, 48 h
[4] = tested on: Plasmodium falciparum; test: Antiplasmodial activity against chloroquine-resistant erythrocyte stages of Plasmodium falciparum Dd2 by parasite lactate dehydrogenase assay; assay type: functional, organism-based
[5] = tested on: Plasmodium falciparum; test: Antiplasmodial activity against chloroquine-sensitive erythrocyte stages of Plasmodium falciparum NF54 by parasite lactate dehydrogenase assay; assay type: functional, organism-based
[6] = tested on: Trichomonas vaginalis; test: Antimicrobial activity against Trichomonas vaginalis G3 assessed as growth inhibition at 10 uM after 24 hrs by hemocytometry; assay type: functional; details: G3, 24 h, read-out: GI

Row | Structure (SMILES) | Ratio IC50 [1] | IC50 [2] [nM] | IC50 [3] [nM] | IC50 [4] [nM] | IC50 [5] [nM] | inhibition of growth at 10 µM [6] [%]
1 | CCCNC(=S)NCCCNc1ccnc2cc(Cl)ccc12 | 1.6 | 58200 | 43800 | 260 | 160 | 34.9
2 | S=C(NCCCNC(=S)NCCCNc1ccnc2cc(Cl)ccc12)NCCCNc1ccnc2cc(Cl)ccc12 | 0.7 | 6520 | 38400 | 230 | 340 | 55.9
3 | S=C(NCCCNc1ccnc2cc(Cl)ccc12)NCCN(CCNC(=S)NCCCNc1ccnc2cc(Cl)ccc12)CCNC(=S)NCCCNc1ccnc2cc(Cl)ccc12 | 5.8 | 4480 | 6210 | 520 | 90 | 51.4
4 | S=C(NCCCNc1ccnc2cc(Cl)ccc12)NCCCN(CCCCN(CCCNC(=S)NCCCNc1ccnc2cc(Cl)ccc12)CCCNC(=S)NCCCNc1ccnc2cc(Cl)ccc12)CCCNC(=S)NCCCNc1ccnc2cc(Cl)ccc12 | 2.5 | < 4500 | 990 | 510 | 200 | 58.7
5 | CCN(CC)CCCC(C)Nc1ccnc2cc(Cl)ccc12 (stereo unspecified) [CHLOROQUINE] | – | 73800 | – | – | – | –
6 | Cc1ncc([N+](=O)[O-])n1CCO [METRONIDAZOLE] | – | – | – | – | – | 100

— ChEMBL document CHEMBL2434967, “Synthesis, characterization, antiparasitic and cytotoxic evaluation of thioureas conjugated to polyamine scaffolds” (Eur J Med Chem, 2013)
